Data: patent US9481676B2, “Azepino[4,5-B]indoles and methods of use” (Medivation Technologies, Inc., priority 2008, dated 2016)

Assays:
[1] = target: T1, human recombinant adrenergic α1D receptor (Homo sapiens, UniProt P25100); assay: Adrenergic alpha1D radioligand binding ([3H]Prozosin); details: compound at 1 μM; read-out: Adrenergic (1 μM) α1D, percent inhibition of specific binding
T1 construct: expressed in transfected cells; host or cells: HEK-293 cells
T1 sequence (P25100 1-572): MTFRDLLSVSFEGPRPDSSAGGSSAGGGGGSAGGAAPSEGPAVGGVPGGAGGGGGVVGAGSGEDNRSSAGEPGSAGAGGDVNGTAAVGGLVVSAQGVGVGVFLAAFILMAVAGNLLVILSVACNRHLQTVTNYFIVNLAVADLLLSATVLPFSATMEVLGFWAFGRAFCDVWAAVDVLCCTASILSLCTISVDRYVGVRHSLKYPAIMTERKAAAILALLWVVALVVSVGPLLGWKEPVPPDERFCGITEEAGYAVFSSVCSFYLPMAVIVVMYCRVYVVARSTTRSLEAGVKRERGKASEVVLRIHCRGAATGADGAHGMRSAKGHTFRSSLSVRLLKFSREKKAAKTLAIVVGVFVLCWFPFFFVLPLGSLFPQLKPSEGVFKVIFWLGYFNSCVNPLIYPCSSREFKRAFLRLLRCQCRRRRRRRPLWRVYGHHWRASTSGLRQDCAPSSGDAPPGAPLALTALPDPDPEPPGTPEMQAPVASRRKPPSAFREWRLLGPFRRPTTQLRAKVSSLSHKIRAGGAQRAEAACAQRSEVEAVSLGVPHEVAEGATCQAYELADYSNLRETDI
How it was run: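 Membranes from HEK-293 cells expressing the human receptor in 50 mM Tris-HCl pH 7.4 were incubated 60 min at 25 °C with 0.6 nM [3H]prazosin. Nonspecific binding was defined with 10 μM phentolamine, and bound ligand measured by filtration.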

[2] = target: T2, human recombinant adrenergic α2B receptor (Homo sapiens, UniProt P18089); assay: Adrenergic alpha2B radioligand binding ([3H]Rauwolscine); details: compound at 1 μM; read-out: Adrenergic (1 μM) α2B, percent inhibition of specific binding
T2 construct: expressed in transfected cells; host or cells: CHO-K1 cells
T2 sequence (P18089 1-450): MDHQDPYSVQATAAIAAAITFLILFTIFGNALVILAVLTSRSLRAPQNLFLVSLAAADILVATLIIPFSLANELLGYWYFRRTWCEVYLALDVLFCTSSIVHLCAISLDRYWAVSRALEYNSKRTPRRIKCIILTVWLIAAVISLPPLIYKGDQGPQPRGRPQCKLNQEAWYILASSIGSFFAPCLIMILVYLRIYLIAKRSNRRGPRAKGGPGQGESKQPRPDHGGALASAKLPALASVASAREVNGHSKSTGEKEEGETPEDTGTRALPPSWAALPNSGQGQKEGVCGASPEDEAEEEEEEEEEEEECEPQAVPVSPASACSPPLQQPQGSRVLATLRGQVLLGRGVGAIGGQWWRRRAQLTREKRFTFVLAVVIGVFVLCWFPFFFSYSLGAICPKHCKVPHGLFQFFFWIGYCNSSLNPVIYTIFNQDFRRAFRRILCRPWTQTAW
How it was run: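 CHO-K1-expressed receptor in Tris-HCl pH 7.4 with MgCl2, EDTA, BSA, incubated 60 min at 25° C with 2.5 nM [3H]Rauwolscine; 10 μM prazosin defines non-specific binding.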

[3] = target: T3, human recombinant serotonin (5-Hydroxytryptamine) 5-HT2A receptor (Homo sapiens, UniProt P28223); assay: Serotonin 5-HT2A radioligand binding ([3H]Ketanserin); details: compound at 1 μM; read-out: Serotonin (1 μM) 5-HT2A, percent inhibition of specific binding
T3 construct: expressed in transfected cells; host or cells: CHO-K1 cells
T3 sequence (P28223 whole entry): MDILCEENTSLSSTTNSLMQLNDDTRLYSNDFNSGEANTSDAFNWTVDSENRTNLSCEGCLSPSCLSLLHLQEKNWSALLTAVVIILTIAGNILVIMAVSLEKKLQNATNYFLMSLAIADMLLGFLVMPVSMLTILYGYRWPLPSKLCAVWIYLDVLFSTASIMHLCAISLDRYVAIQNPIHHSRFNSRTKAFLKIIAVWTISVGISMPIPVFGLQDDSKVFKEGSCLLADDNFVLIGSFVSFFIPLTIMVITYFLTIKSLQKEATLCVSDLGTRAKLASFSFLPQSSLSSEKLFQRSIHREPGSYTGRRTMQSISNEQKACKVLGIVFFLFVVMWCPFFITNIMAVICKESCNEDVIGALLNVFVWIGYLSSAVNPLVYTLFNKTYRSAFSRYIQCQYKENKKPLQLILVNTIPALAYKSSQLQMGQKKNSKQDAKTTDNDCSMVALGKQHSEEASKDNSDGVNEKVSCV
How it was run: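 Percent inhibition of specific [3H]ketanserin (0.5 nM) binding, filtration read-out, with compounds at ≤1 μM (1% DMSO vehicle). Receptor source: recombinant human 5-HT2A in CHO-K1 cells, 50 mM Tris-HCl pH 7.4, 60 min, 25 °C; 1 μM mianserin gives nonspecific binding.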

## C/C(=C\n1c2c(c3cc(Cl)ccc31)CCN(C)CC2)c1ccc(Cl)cc1Cl [Compound No. 239, (E)-9-chloro-6-(2-(2,4-dichlorophenyl)prop-1-enyl)-3-methyl-1,2,3,4,5,6-hexahydroazepino[4,5-b]indole]
[1]
  inhibition at 1 µM: 28%
[2]
  inhibition at 1 µM: 107%
[3]
  inhibition at 1 µM: 102%

## CN1CCc2c(n(C#Cc3ccc(F)cc3)c3ccc(Cl)cc23)CC1 [Compound No. 281, 9-chloro-6-((4-fluorophenyl)ethynyl)-3-methyl-1,2,3,4,5,6-hexahydroazepino[4,5-b]indole]
[1]
  inhibition at 1 µM: 75%
[2]
  inhibition at 1 µM: 99%
[3]
  inhibition at 1 µM: 100%

## CN1CCc2c(n(C#Cc3ccc(Cl)cc3)c3ccc(Cl)cc23)CC1 [Compound No. 282, 9-chloro-6-((4-chlorophenyl)ethynyl)-3-methyl-1,2,3,4,5,6-hexahydroazepino[4,5-b]indole]
[1]
  inhibition at 1 µM: 67%
[2]
  inhibition at 1 µM: 102%
[3]
  inhibition at 1 µM: 98%

## Cc1ccc2c(c1)c1c(n2C(=O)Cc2ccc(F)cc2)CCN(C)CC1 [Compound No. 285, 1-(3,9-dimethyl-2,3,4,5-tetrahydroazepino[4,5-b]indol-6(1H)-yl)-2-(4-fluorophenyl) ethanone]
[1]
  inhibition at 1 µM: 89%
[2]
  inhibition at 1 µM: 75%
[3]
  inhibition at 1 µM: 100%
